Laboratory results from PubChem BioAssay AID2740 (NMMLSC, 2010).
The source made the active and inactive calls.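 The calls were made as follows: active = compounds whose fitted half-maximal concentration for changing the GFP signal is at or below a set limit; inactive = the rest.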

Experiments:
[1] = TOR pathway RPL19A-GFP modulators, concentration series – cell-based, S. cerevisiae, flow cytometry, MLPCN hits, dose response (AID 2740);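 as to GFP fluorescence, lower = active: background is signal of the same compound in parental non-GFP s288c yeast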; settings: S. cerevisiae RPL19A-GFP strain, flow cytometry fluorescence, 3 h; at 33 µM (top of the series)
[2] = test system: S. cerevisiae RPL19A-GFP strain, flow cytometry fluorescence, 3 h; test: as above

- EC50 [2]: 5.05 µM
SMILES: O=C(OCC(=O)N1CCN(C(=O)c2ccco2)CC1)c1cc(-c2ccc(F)cc2)nc2ccccc12
- GFP fluorescence, lower = active (kMESF (background-subtracted)) [1]: 32.3 (inactive)
